# According to patent US10792483B2, “Tumor vaccination” (XAX KFT., priority 2012, dated 2020):
# Entries after “also recorded” stand apart in the source; their conditions may differ.
# How the values were obtained:
# [1] = test system: non small cells lung cancer; assay: Case report, patient treated with radiotherapy, oncothermia and GM-CSF (Example 13); type: in vivo, human; conditions: for Response of far-distant metastases (abscopal effect, PET scan): GM-CSF (Leukine) subcutaneously with oncothermia (and radiotherapy) of the primary tumor only; for Response of the primary (treated) tumor: GM-CSF (Leukine) with oncothermia (and radiotherapy)
# Text: A patient was diagnosed with unclassifiable non small cells lung cancer. The classification of the tumor at first diagnosis was cT2N2M0, stage IIIB. Despite of the advanced case the patient refused any treatment. Five months later, they visited outpatient department of complementary and alternative medicine with complaints of hemoptysis and dyspnea on exertion gradually worsened 4 weeks before. They were referred to medical oncology department and admitted for re-evaluation.
# The patient had no co-morbidities and no medical history. However, they still refused chemotherapy and together with their family members requested other possible treatment options.
# In these circumstances we made radiotherapy in combination with oncothermia and GM-CSF expecting to induce abscopal effect. Local field radiation therapy to lung mass was delivered at a dose of […] in 28 daily fractions for 5-6 treatments in a week. It was followed by oncothermia after radiation 3 times a week. After 2 weeks of oncothermia treatment, GM-CSF (250 microgram, Leukine®, USA) was administered subcutaneously once a day for 10 days. GM-CSF in dose 125 μg/m^2 was given subcutaneously for 14 days after one week of radiotherapy. The result supported that using GM-CSF was feasible and its effect enhanced the immune therapy.
# [2] = test system: Melanoma; conditions: phase III, 185 patients; cited from earlier work
# [3] = test system: melanoma with lung metastases; assay: Case report, dog treated with oncothermia and low dose Carboplatine (Example 11); type: in vivo, Cocker spaniel; conditions: low dose Carboplatine 2 times (100 mg/m^2) + oncothermia 10 times in 2 weeks on the chest
# Experimental: Case No.:11461, Cocker spaniel, 8 years, castrated male,
# Diagnosis: melanoma with lung metastases. The primary tumor was situated on the right hind leg and was removed surgically. 5 months later metastases in the lung occurred, at that time we started the treatment.
# Oncothermia (10 times in a 2 weeks period)
# Low dose Carboplatine 2 times, (100 mg/m^2)
# The site of the OTM treatment was on the chest, exactly at the line of the heart.
compound,measurement,setting,value
Leukine®: sargramostim; recombinant granulocyte macrophage colony-stimulating factor,"Response of far-distant metastases (abscopal effect, PET scan)",[1],"beneficial effect also on the far-distances metastases, which disappear; also recorded: the metastases disappeared"
same,"Response of far-distant metastases (abscopal effect, PET scan)",[1]; listed as GM-CSF,nearly complete remission in multiple metastatic lymph nodes; also recorded: successful abscopal effect
same,Response of the primary (treated) tumor,[1],started to shrink
same,Response of the primary (treated) tumor,[1]; listed as GM-CSF,shrinking
same,Adverse effects,"[1]; radiotherapy + oncothermia + GM-CSF, end of treatment period",no severe adverse effects except grade 1 fatigue
"gp100:209-217(210M): listed under vaccines with peptides (IMDQVPFSV; UniProt P40967 209-217, looked up, variant T210M)",RR and PES,[2],Significant improve-
N.N.O=C([O-])C1(C(=O)[O-])CCC1.[Pt+2] [Carboplatine],Tumor regression (CT image series),[3],"Significant tumor regression was observed not only at the site of the treatment, but outside of the directly OTM treated area"
